How the values were obtained:
[1] = test system: CCRF-CEM; assay: NCI-60 SRB screen; type: cell-based; settings: Homo sapiens, single dose 10^−5 M, read-out: Growth inhibition (%)
[2] = test system: HL-60(TB); assay: NCI-60 SRB screen; type: cell-based, human; settings: Homo sapiens; HL-60 (TB); single dose 10^−5 M; read-out: Growth inhibition (%)
[3] = test system: K-562; assay: NCI-60 SRB screen; type: cell-based, human; settings: Homo sapiens, K562; K-562; single dose 10^−5 M; read-out: Growth inhibition (%)
[4] = test system: MOLT-4; assay: NCI-60 SRB screen; type: cell-based; settings: Homo sapiens; MOLT-4; single dose 10^−5 M; read-out: Growth inhibition (%)
[5] = test system: SR; assay: NCI-60 SRB screen; type: cell-based; settings: Homo sapiens, single dose 10^−5 M, read-out: Growth inhibition (%)
[6] = test system: A549/ATCC; assay: NCI-60 SRB screen; type: cell-based, human; settings: Homo sapiens, single dose 10^−5 M, read-out: Growth inhibition (%)
[7] = test system: EKVX; assay: NCI-60 SRB screen; type: cell-based, human; settings: Homo sapiens, single dose 10^−5 M, read-out: Growth inhibition (%)
[8] = test system: HOP-62; assay: NCI-60 SRB screen; type: cell-based, human; settings: Homo sapiens; HOP-62; single dose 10^−5 M; read-out: Growth inhibition (%)
[9] = test system: NCI-H226; assay: NCI-60 SRB screen; type: cell-based, human; settings: Homo sapiens; NCI-H226; single dose 10^−5 M; read-out: Growth inhibition (%)
[10] = test system: NCI-H23; assay: NCI-60 SRB screen; type: cell-based, human; settings: Homo sapiens; NCI-H23; single dose 10^−5 M; read-out: Growth inhibition (%)
[11] = test system: NCI-H322M; assay: NCI-60 SRB screen; type: cell-based, human; settings: Homo sapiens, single dose 10^−5 M, read-out: Growth inhibition (%)
[12] = test system: NCI-H460; assay: NCI-60 SRB screen; type: cell-based, human; settings: Homo sapiens; NCI-H460; single dose 10^−5 M; read-out: Growth inhibition (%)
[13] = test system: NCI-H522; assay: NCI-60 SRB screen; type: cell-based, human; settings: Homo sapiens; NCI-H522; single dose 10^−5 M; read-out: Growth inhibition (%)
[14] = test system: COLO 205; assay: NCI-60 SRB screen; type: cell-based, human; settings: Homo sapiens; COLO 205; single dose 10^−5 M; read-out: Growth inhibition (%)
[15] = test system: HCC-2998; assay: NCI-60 SRB screen; type: cell-based, human; settings: Homo sapiens; HCC-2998; single dose 10^−5 M; read-out: Growth inhibition (%)
[16] = test system: HCT-116; assay: NCI-60 SRB screen; type: cell-based, human; settings: Homo sapiens; HCT-116; single dose 10^−5 M; read-out: Growth inhibition (%)
[17] = test system: HCT-15; assay: NCI-60 SRB screen; type: cell-based, human; settings: Homo sapiens; HCT-15; single dose 10^−5 M; read-out: Growth inhibition (%)
[18] = test system: HT-29; assay: NCI-60 SRB screen; type: cell-based; settings: Homo sapiens; HT-29; single dose 10^−5 M; read-out: Growth inhibition (%)
[19] = test system: KM12; assay: NCI-60 SRB screen; type: cell-based, human; settings: Homo sapiens; KM12; single dose 10^−5 M; read-out: Growth inhibition (%)
[20] = test system: SW-620; assay: NCI-60 SRB screen; type: cell-based; settings: Homo sapiens; SW-620; single dose 10^−5 M; read-out: Growth inhibition (%)
[21] = test system: SF-268; assay: NCI-60 SRB screen; type: cell-based, human; settings: Homo sapiens; SF-268; single dose 10^−5 M; read-out: Growth inhibition (%)
[22] = test system: SF-295; assay: NCI-60 SRB screen; type: cell-based, human; settings: Homo sapiens; SF-295; single dose 10^−5 M; read-out: Growth inhibition (%)
[23] = test system: LOX IMVI; assay: NCI-60 SRB screen; type: cell-based, human; settings: Homo sapiens, single dose 10^−5 M, read-out: Growth inhibition (%)
[24] = test system: MALME-3M; assay: NCI-60 SRB screen; type: cell-based, human; settings: Homo sapiens, single dose 10^−5 M, read-out: Growth inhibition (%)
[25] = test system: M14; assay: NCI-60 SRB screen; type: cell-based, human; settings: Homo sapiens; M14; single dose 10^−5 M; read-out: Growth inhibition (%)
[26] = test system: MDA-MB-435; assay: NCI-60 SRB screen; type: cell-based; settings: Homo sapiens, MDA-MB-435, read-out: Growth inhibition (%)
[27] = test system: SK-MEL-2; assay: NCI-60 SRB screen; type: cell-based, human; settings: Homo sapiens; SK-MEL-2; single dose 10^−5 M; read-out: Growth inhibition (%)
[28] = test system: SK-MEL-28; assay: NCI-60 SRB screen; type: cell-based; settings: Homo sapiens; SK-MEL-28; single dose 10^−5 M; read-out: Growth inhibition (%)
[29] = test system: SK-MEL-5; assay: NCI-60 SRB screen; type: cell-based, human; settings: Homo sapiens; SK-MEL-5; single dose 10^−5 M; read-out: Growth inhibition (%)
[30] = test system: UACC-257; assay: NCI-60 SRB screen; type: cell-based, human; settings: Homo sapiens, UACC-257; UACC-275 (so in the source); single dose 10^−5 M; read-out: Growth inhibition (%)
[31] = test system: UACC-62; assay: NCI-60 SRB screen; type: cell-based, human; settings: Homo sapiens; UACC-62; single dose 10^−5 M; read-out: Growth inhibition (%)
[32] = test system: IGROV1; assay: NCI-60 SRB screen; type: cell-based, human; settings: Homo sapiens, IGROV-1; IGROV1; single dose 10^−5 M; read-out: Growth inhibition (%)
[33] = test system: OVCAR-3; assay: NCI-60 SRB screen; type: cell-based, human; settings: Homo sapiens; OVCAR-3; single dose 10^−5 M; read-out: Growth inhibition (%)
[34] = test system: OVCAR-4; assay: NCI-60 SRB screen; type: cell-based, human; settings: Homo sapiens; OVCAR-4; single dose 10^−5 M; read-out: Growth inhibition (%)
[35] = test system: OVCAR-8; assay: NCI-60 SRB screen; type: cell-based, human; settings: Homo sapiens; OVCAR-8; single dose 10^−5 M; read-out: Growth inhibition (%)
[36] = test system: NCI/ADR-RES; assay: NCI-60 SRB screen; type: cell-based, human; settings: Homo sapiens, single dose 10^−5 M, read-out: Growth inhibition (%)
[37] = test system: SK-OV-3; assay: NCI-60 SRB screen; type: cell-based, human; settings: Homo sapiens; SK-OV-3; single dose 10^−5 M; read-out: Growth inhibition (%)
[38] = test system: 786-0; assay: NCI-60 SRB screen; type: cell-based; settings: Homo sapiens; 786-0; single dose 10^−5 M; read-out: Growth inhibition (%)
[39] = test system: ACHN; assay: NCI-60 SRB screen; type: cell-based; settings: Homo sapiens, single dose 10^−5 M, read-out: Growth inhibition (%)
[40] = test system: RXF 393; assay: NCI-60 SRB screen; type: cell-based, human; settings: Homo sapiens; RXF 393; single dose 10^−5 M; read-out: Growth inhibition (%)
[41] = test system: SN12C; assay: NCI-60 SRB screen; type: cell-based, human; settings: Homo sapiens, SN12C; SN 12 C; single dose 10^−5 M; read-out: Growth inhibition (%)
[42] = test system: TK-10; assay: NCI-60 SRB screen; type: cell-based, human; settings: Homo sapiens; TK-10; single dose 10^−5 M; read-out: Growth inhibition (%)
[43] = test system: UO-31; assay: NCI-60 SRB screen; type: cell-based, human; settings: Homo sapiens; UO-31; single dose 10^−5 M; read-out: Growth inhibition (%)
[44] = test system: panel of 60 cancer cell lines; assay: NCI-60 SRB screen, mean or range over the panel; type: cell-based, human; settings: Homo sapiens; mean over the cell lines; single dose 10^−5 M; read-out: Mean growth inhibition (%)

SMILES: O=C1C(=Cc2ccccc2[N+](=O)[O-])Sc2c(F)cccc21 [Compound 2c, 7-Fluoro-2-(2-nitrobenzylidene)[1]benzothiophen-3(2H)-one]
- inhibition at 10 µM [1]: 26.3%
- inhibition at 10 µM [2]: 28.8%
- inhibition at 10 µM [3]: 67.8%
- inhibition at 10 µM [4]: 19.8%
- inhibition at 10 µM [5]: 37.2%
- inhibition at 10 µM [6]: 4.91%
- inhibition at 10 µM [7]: 15.6%
- inhibition at 10 µM [8]: 20.4%
- inhibition at 10 µM [9]: 23.5%
- inhibition at 10 µM [10]: 13.3%
- inhibition at 10 µM [11]: 1.98%
- inhibition at 10 µM [12]: 59.2%
- inhibition at 10 µM [13]: 2.94%
- inhibition at 10 µM [14]: -6.61%
- inhibition at 10 µM [15]: -11.4%
- inhibition at 10 µM [16]: 80.5%
- inhibition at 10 µM [17]: -1.05%
- inhibition at 10 µM [18]: -7.17%
- inhibition at 10 µM [19]: 3.27%
- inhibition at 10 µM [20]: 68.8%
- inhibition at 10 µM [21]: 5.43%
- inhibition at 10 µM [22]: 27%
- inhibition at 10 µM [23]: 11.1%
- inhibition at 10 µM [24]: 12.6%
- inhibition at 10 µM [25]: -1.11%
- inhibition at 10 µM [26]: -12.1%
- inhibition at 10 µM [27]: -9.11%
- inhibition at 10 µM [28]: -4.83%
- inhibition at 10 µM [29]: 8.44%
- inhibition at 10 µM [30]: 78.8%
- inhibition at 10 µM [31]: 60.9%
- inhibition at 10 µM [32]: 66.5%
- inhibition at 10 µM [33]: 70.8%
- inhibition at 10 µM [34]: 40.5%
- inhibition at 10 µM [35]: 6.75%
- inhibition at 10 µM [36]: 13.5%
- inhibition at 10 µM [37]: 2.42%
- inhibition at 10 µM [38]: -11%
- inhibition at 10 µM [39]: 7.28%
- inhibition at 10 µM [40]: -3.1%
- inhibition at 10 µM [41]: 7.57%
- inhibition at 10 µM [42]: -30.9%
- inhibition at 10 µM [43]: 29.9%
- inhibition at 10 µM [44]: 11.5%
